Reference: US20240166612A1, “ARYLTHIOETHER ACETAMIDE AND RELATED COMPOUNDS AND THEIR USE IN TREATING MEDICAL CONDITIONS” (X-Biotix Therapeutics, Inc., priority 2021, published 2024)
Values after ≈ are worked out from the molar mass of the structure shown.

How the values were obtained:
[1] = molecular target: T1, recombinant LpxA enzyme (P. aeruginosa) (Pseudomonas aeruginosa, UniProt Q9X6P4); assay: LpxA in vitro substrate acylation assay with RapidFire MS analysis (P. aeruginosa); format: biochemical; settings: P. aeruginosa enzyme 0.5 nM, PaACP-C10, 30 min
T1 sequence (Q9X6P4 1-258): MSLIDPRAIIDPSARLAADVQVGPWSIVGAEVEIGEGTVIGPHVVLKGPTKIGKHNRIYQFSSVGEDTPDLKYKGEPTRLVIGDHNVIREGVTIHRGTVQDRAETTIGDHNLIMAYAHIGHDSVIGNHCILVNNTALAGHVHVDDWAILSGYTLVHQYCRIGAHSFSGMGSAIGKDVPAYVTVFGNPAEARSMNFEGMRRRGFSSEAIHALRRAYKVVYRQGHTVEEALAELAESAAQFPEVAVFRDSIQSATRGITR
Description: Exemplary compounds from the above Examples were tested for ability to inhibit LpxA activity using an in vitro substrate acylation assay with RapidFire™ MS analysis. Assay procedures and results are described below.
Reactions were carried out in a final volume of 30 μL with 25 mM HEPES (pH 7.3), 150 mM NaCl, 2 mM DTT, 0.01% BSA, 5 μM UDP-GlcNac, recombinant LpxA enzyme (0.5 nM P. aeruginosa or 1.0 nM E. coli, both produced at Evotec), 0.5 μM acyl-transfer reagent (decanoyl P. aeruginosa acyl-carrier protein [PaACP-C10] or myristoyl E. coli acyl-carrier protein [EcACP-C1-4], both produced at Evotec), and 1% DMSO containing test compound. After 30 min incubation at room temperature, reactions were stopped by addition of 30 μL of 10% TCA in water.
Samples were centrifuged (4350 rpm, 4° C., 5 min), and then subjected to RapidFire™ MS analysis on an Agilent RapidFire 300 coupled to an Agilent 6460 triple-quadrupole mass spectrometer. Analytes were retained on a C4 (type A) cartridge using the following solvents and flow rates: • Pump 1—H2O with 5 mM NH4OAc at 2.0 mL/min, • Pump 2—MeOH/H2O (90/10) at 1.5 mL/min, • Pump 3—MeOH/H2O (90/10) at 0.5 mL/min, and • Pump 4—ACN (organic)/H2O (aqueous). Substrate and product of the reaction were detected in negative mode ESI-MS/MS by MRM (multiple reaction monitoring) of transitions 606.0/385.0 (UDP-GlcNAc substrate) and 776.2/385.0 (UDP-3-O—(R-3-hydroxydecanoyl)-GlcNAc product, for P. aeruginosa LpxA assay) or 832.2/385.0 (UDP-3-O—(R-3-hydroxymyristoyl)-GlcNAc product, for E. coli LpxA assay).
For IC50 determinations, peak areas of the substrate and product were compared to compute the proportion of product formed by the LpxA enzyme at each compound concentration.

[2] = test system: Wild-type P. aeruginosa PAO1; assay: Broth microdilution MIC, wild-type P. aeruginosa PAO1; format: cell-based; settings: Pseudomonas aeruginosa; wild-type P. aeruginosa PAO1, 37° C., 18 h; read-out: PAO1 WT MIC
Description: (§1) Exemplary compounds from the above Examples were tested to determine their minimum inhibitory concentration (MIC) for exemplary strains of Escherichia and Pseudomonas bacteria using broth microdilution methods. Assay procedures and results are described below.
(§2) Broth microdilution assays were conducted according to Clinical and Laboratory Standards Institute guidelines (CLSI, M07-A^11: Clinical and Laboratory Standards Institute. Methods for Dilution Antimicrobial Susceptibility Tests for Bacteria that Grow Aerobically; Approved Standard-11th Edition. Wayne, PA: CLSI, 2018). Briefly, bacterial suspensions were adjusted to a density equivalent to a 0.5 McFarland standard and diluted in sterile, cation-adjusted Mueller-Hinton broth (Beckton Dickinson) to yield a final inoculum between 2×10^5 and 8×10^5 colony-forming units (CFU)/mL. An inoculum volume of 98 μL was added to wells containing 2 μL of 2-fold serial dilutions of drug (prepared in DMSO). All inoculated microdilution trays were incubated in ambient air at 37° C. for 18 h. […] Performance of the assay was monitored by the use of laboratory quality-control strains (S. aureus ATCC 29213 and P. aeruginosa ATCC 27853) and levofloxacin, a compound with a defined MIC spectrum, in accordance with CLSI guidelines (CLSI, M100Ed29: Clinical and Laboratory Standards Institute. Performance Standards for Antimicrobial Susceptibility Testing, 29th Edition. Wayne, PA: CLSI, 2018).
(§3) Multiple enterobacteriaceae strains were tested, including both wild-type strains and multi-drug resistance pump deficient mutants. Specific strains tested included the following: • Wild-type P. aeruginosa PAO1, • P. aeruginosa PAO1 ΔmexABoprM—Disabled multi-drug efflux system Δ(MexAB-OprM), • P. aeruginosa PAO397—PAO1Δ(mexAB-oprM) Δ(mexCD-oprJ) Δ(mexEF-oprN) Δ(mexJK) Δ(mexXY) ΔopmH, • P. aeruginosa LESB58—Clinical isolate; colistin-resistant, isolated in the United Kingdom in 1988 from a patient with cystic fibrosis • E. coli JW0452-3 (BW25113 JacrA::kan)—Disabled multi-drug efflux system (AcrAB-TolC).
(§4) Experimental results are provided in Table 11, which provides MIC values for wild-type P. aeruginosa PAO1 (“PAO1 WT MIC”), P. aeruginosa PAO ΔmexABoprM (“PAO1 KO MIC”), P. aeruginosa PAO397 (“PAO397 KO MIC”), P. aeruginosa LESB58 (“LESB58”), and E. coli JW0452-3 (BW25113 JacrA::kan) (“E. coli KO MIC”).

[3] = test system: P. aeruginosa PAO1 ΔmexABoprM; assay: Broth microdilution MIC, P. aeruginosa PAO1 ΔmexABoprM; format: cell-based; settings: Pseudomonas aeruginosa, PAO1, 18 h, read-out: PAO1 KO MIC
Description: as §1, §2, §3, §4

P. aeruginosa PAO397 = assay: Broth microdilution MIC, P. aeruginosa PAO397; format: cell-based; settings: Pseudomonas aeruginosa, PAO397, 18 h, read-out: PAO397 KO MIC
Description: as §1, §2, §3, §4

P. aeruginosa LESB58 = assay: Broth microdilution MIC, P. aeruginosa LESB58; format: cell-based; settings: Pseudomonas aeruginosa; P. aeruginosa LESB58 clinical isolate, colistin-resistant, 37° C., 18 h
Description: as §1, §2, §3, §4

| Compound | IC50 [1] [nM] | MIC [2] [µg/mL] | MIC [3] [µg/mL] | MIC (P. aeruginosa PAO397) [µg/mL] | MIC (P. aeruginosa LESB58) [µg/mL] |
| --- | --- | --- | --- | --- | --- |
| N#Cc1ccc(CN(Cc2nnc(N)o2)C(=O)CSc2cccc(F)c2Cl)c(F)c1 [Compound No. 28, N-[(5-Amino-1,3,4-oxadiazol-2-yl)methyl]-2-(2-chloro-3-fluoro-phenyl)sulfanyl-N-[(4-cyano-2-fluoro-phenyl)methyl]acetamide] | < 20 | 16 to 64 (≈ 35.6 to 142 µM) | 1 to 16 (≈ 2.22 to 35.6 µM) | < 1 |  |
| N#Cc1ccc(CN(Cc2nnc(N)o2)C(=O)COc2cc(F)cc(F)c2Cl)c(F)c1 [Compound No. 31, N-[(5-Amino-1,3,4-oxadiazol-2-yl)methyl]-2-(2-chloro-3,5-difluoro-phenoxy)-N-[(4-cyano-2-fluoro-phenyl)methyl]acetamide] |  | > 64 | 1 to 16 (≈ 2.21 to 35.4 µM) | < 1 | 1 to 16 (≈ 2.21 to 35.4 µM) |
| N#Cc1ccc(CN(Cc2nnc(N)o2)C(=O)CSc2cc(OCCN)ccc2Cl)c(F)c1 [Compound No. 60, 2-[5-(2-Aminoethoxy)-2-chloro-phenyl]sulfanyl-N-[(5-amino-1,3,4-oxadiazol-2-yl)methyl]-N-[(4-cyano-2-fluoro-phenyl)methyl]acetamide] | 100 to 1000 | > 64 | 1 to 16 (≈ 2.04 to 32.6 µM) | < 1 |  |
| N#Cc1ccc(CN(Cc2nnc(N)o2)C(=O)CSc2cc(CCO)ccc2Cl)c(F)c1 [Compound No. 63, N-[(5-Amino-1,3,4-oxadiazol-2-yl)methyl]-2-[2-chloro-5-(2-hydroxyethyl)phenyl]sulfanyl-N-[(4-cyano-2-fluoro-phenyl)methyl]acetamide] |  | > 64 | 1 to 16 (≈ 2.1 to 33.6 µM) | < 1 | 16 to 64 (≈ 33.6 to 134 µM) |
| CCc1c(F)cc(F)cc1OCC(=O)N(Cc1nnc(N)o1)Cc1ccc(C#N)cc1F [Compound No. 64, N-[(5-Amino-1,3,4-oxadiazol-2-yl)methyl]-N-[(4-cyano-2-fluoro-phenyl)methyl]-2-(2-ethyl-3,5-difluoro-phenoxy)acetamide] |  | 16 to 64 (≈ 35.9 to 144 µM) | < 1 | < 1 | 1 to 16 (≈ 2.25 to 35.9 µM) |
| Cc1noc(CN(Cc2ccc(C#N)cc2)C(=O)CSc2ccccc2Cl)n1 [Compound No. 68, 2-(2-Chlorophenyl)sulfanyl-N-[(4-cyanophenyl)methyl]-N-[(3-methyl-1,2,4-oxadiazol-5-yl)methyl]acetamide] | 20 to 100 | > 64 | 16 to 64 (≈ 38.8 to 155 µM) | 1 to 16 (≈ 2.42 to 38.8 µM) |  |
| CCc1ccccc1SCC(=O)N(Cc1ccc(C#N)cc1)Cc1nnc(N)[nH]1 [Compound No. 70, N-[(5-Amino-4H-1,2,4-triazol-3-yl)methyl]-N-[(4-cyanophenyl)methyl]-2-(2-ethylphenyl)sulfanyl-acetamide] | 20 to 100 | > 64 | 1 to 16 (≈ 2.46 to 39.4 µM) | < 1 |  |
| N#Cc1ccc(CN(Cc2nnc(N)o2)C(=O)CSc2ccccc2Cl)c(F)c1 [compound 13] |  | 16 to 64 (≈ 37 to 148 µM) | 1 to 16 (≈ 2.32 to 37 µM) | < 1 | 1 to 16 (≈ 2.32 to 37 µM) |
| N#Cc1ccc(CN(Cc2nnc(N)o2)C(=O)CSc2ccccc2Cl)cn1 [compound 14] |  | > 64 | 1 to 16 (≈ 2.41 to 38.6 µM) | < 1 | 16 to 64 (≈ 38.6 to 154 µM) |
| Cc1ccccc1SCC(=O)N(Cc1ccc(C#N)nc1)Cc1nnc(N)o1 [compound 15] | 100 to 1000 | > 64 | 1 to 16 (≈ 2.54 to 40.6 µM) | 1 to 16 (≈ 2.54 to 40.6 µM) |  |
| N#Cc1ccc(CN(Cc2nnc(N)o2)C(=O)COc2cccc(Cl)c2)c(F)c1 [compound 20] |  | > 64 | 16 to 64 (≈ 38.5 to 154 µM) | 1 to 16 (≈ 2.4 to 38.5 µM) | > 64 |
| N#Cc1cc(F)c(CN(Cc2nnc(N)o2)C(=O)CSc2cccc(F)c2Cl)c(F)c1 [compound 25] |  | 1 to 16 (≈ 2.14 to 34.2 µM) | 1 to 16 (≈ 2.14 to 34.2 µM) | < 1 | 1 to 16 (≈ 2.14 to 34.2 µM) |
| N#Cc1cc(F)c(CN(Cc2nnc(N)o2)C(=O)CSc2cc(F)cc(F)c2Cl)c(F)c1 [compound 26] |  | > 64 | < 1 | < 1 | 1 to 16 (≈ 2.06 to 32.9 µM) |
| N#Cc1ccc(CN(Cc2nnc(N)o2)C(=O)CSc2cc(F)ccc2Cl)c(F)c1 [compound 30] | < 20 | 16 to 64 (≈ 35.6 to 142 µM) | 1 to 16 (≈ 2.22 to 35.6 µM) | < 1 |  |
| N#Cc1ccc(CN(Cc2nnc(N)o2)C(=O)COc2ccccc2C(F)(F)F)cc1 [compound 33] | 20 to 100 | > 64 | 16 to 64 (≈ 37.1 to 148 µM) | < 1 |  |
| N#Cc1ccc(CN(Cc2nnc(N)o2)C(=O)COc2ccccc2Br)cc1 [compound 35] | 20 to 100 | > 64 | 1 to 16 (≈ 2.26 to 36.2 µM) | < 1 |  |
| CCc1ccccc1OCC(=O)N(Cc1nnc(N)o1)Cc1ccc(C#N)cc1F [compound 37] |  | > 64 | 1 to 16 (≈ 2.44 to 39.1 µM) | < 1 | 16 to 64 (≈ 39.1 to 156 µM) |
| CCc1ccc(F)cc1OCC(=O)N(Cc1nnc(N)o1)Cc1ccc(C#N)cc1F [compound 38] |  | 16 to 64 (≈ 37.4 to 150 µM) | 1 to 16 (≈ 2.34 to 37.4 µM) | < 1 | 16 to 64 (≈ 37.4 to 150 µM) |
| N#Cc1ccc(CN(Cc2nnc(N)o2)C(=O)COc2ccccc2OC(F)(F)F)c(F)c1 [compound 39] |  | > 64 | 16 to 64 (≈ 34.4 to 138 µM) | 1 to 16 (≈ 2.15 to 34.4 µM) | > 64 |
| CCc1c(F)cccc1OCC(=O)N(Cc1nnc(N)o1)Cc1ccc(C#N)cc1F [compound 41] |  | > 64 | < 1 | < 1 | 1 to 16 (≈ 2.34 to 37.4 µM) |
| CCc1ccccc1SCC(=O)N(Cc1nnc(N)o1)Cc1ccc(C#N)cc1F [compound 42] |  | 16 to 64 (≈ 37.6 to 150 µM) | 1 to 16 (≈ 2.35 to 37.6 µM) | < 1 | 1 to 16 (≈ 2.35 to 37.6 µM) |
| N#Cc1ccc(CN(Cc2nnc(N)o2)C(=O)CSc2cc(CO)ccc2Cl)cc1 [compound 45] | 20 to 100 | > 64 | 1 to 16 (≈ 2.25 to 36 µM) | < 1 |  |
| N#Cc1ccc(CN(Cc2nnc(N)o2)C(=O)CSc2cccc(F)c2Cl)cc1 [compound 52] |  | > 64 | 1 to 16 (≈ 2.32 to 37 µM) | < 1 | 1 to 16 (≈ 2.32 to 37 µM) |
| N#Cc1ccc(CN(Cc2nnc(N)o2)C(=O)CSc2cc(F)cc(F)c2Cl)c(F)c1 [compound 55] |  | 1 to 16 (≈ 2.14 to 34.2 µM) | < 1 | < 1 | 1 to 16 (≈ 2.14 to 34.2 µM) |
| N#Cc1ccc(CN(Cc2nnc(N)o2)C(=O)CSc2ccccc2OC(F)(F)F)c(F)c1 [compound 56] |  | > 64 | 16 to 64 (≈ 33.2 to 133 µM) | < 1 | > 64 |
